Assays:
[1] = test system: melanocytes (MeI-Ab cells); experiment: Inhibition of melanin generation in mouse melanocytes; type: cell-based, C57BL/6 mouse; settings: added for 3 consecutive days; sample 10 μg/mL
Procedure: Inhibition of melanin generation in mouse melanocytes was evaluated in order to confirm the effect of the ginseng berry extract of Example 1 of inhibiting melanin generation.
First, melanocytes (MeI-Ab cells) derived from C57BL/6 mouse [Dooley, T. P. et al, Skin Pharmacol., 7, pp. 188-200] were cultured in Dulbecco's modified Eagle's medium (DMEM) containing 10% FBS, 100 nM 2-O-tetradecanoylphorbol-13-acetate and 1 nM cholera toxin under the condition of 37° C., 5% CO2. The cultured MeI-Ab cells were separated using 0.25% trypsin-EDTA, and cultured on a 24-well plate to a concentration of 10^5 cells/well. Starting from day 2, the ginseng berry extract of Example 1 (1 μg/mL, 10 μg/mL and 100 μg/mL), the ginseng berry saponin concentrate of Example 2 (10 μg/mL), the ginseng root extract of Comparative Example 1 (10 μg/mL) or ginsenosides Rg1, Rg2, Rh1 or Re (10 μg/mL) was added for 3 consecutive days. Hydroquinone (10 μg/mL) was used as a positive control substance. Then, after removing the medium and washing with PBS, the cells were dissolved with 1 N sodium hydroxide. Absorbance was measured at 400 nm, and melanin generation inhibition ratio was calculated by Equation 3.

Cyclooxygenase-2 (COX-2) = experiment: Inhibition of UV-induced COX-2 biosynthesis in human fibroblasts (western blotting); type: cell-based; settings: UVA 15 J/cm^2, 2nd day, relative to UV control; sample 10 μg/mL
Procedure: Human fibroblasts were cultured on a 12-well plate incubator to a concentration of 10^5 cells/well. Then, after irradiating UVA at 15 J/cm^2, the medium was replaced by one including the ginseng berry extract of Example 1 (0.1 μg/mL, 1 μg/mL and 10 μg/mL), the ginseng berry saponin concentrate of Example 2 (10 μg/mL), the ginseng root extract of Comparative Example 1 (0.1 μg/mL, 1 μg/mL and 10 μg/mL) or ginsenosides Rg1, Rg2, Rh1 or Re (10 μg/mL). On the 2nd day of culturing, the cells were harvested and the quantity of produced COX-2 was analyzed using western blotting. The result was calculated as a relative value with respect to the control group, which was irradiated with UV without treating with a test substance, using a densitometer.

IL1-β = experiment: LPS-induced inflammatory factor IL1-β in mouse blood; type: in vivo; settings: mouse blood about 12 h after LPS, intra-abdominal
Procedure: (§1) Based on the experimental result in the cell level, the effect of controlling vascular inflammation of the ginseng berry extract was tested in an animal model. Mice were grouped into a non-treated group, an LPS-induced group, a group treated with the ginseng berry extract of Example 1 (50 μg/mL and 100 μg/mL), a group treated with the ginseng berry saponin concentrate of Example 2 (100 μg/mL), a group treated with the ginseng root extract of Comparative Example 1 (100 μg/mL) and groups treated with ginsenosides Rg1, Rg2, Rh1 or Re (10 μg/mL and 20 μg/mL), with 5 mice per each group.
(§2) 100 mg of each test substance per kg body weight of mouse, diluted in saline solution (0.9% NaCl), was intra-abdominally injected three times from day 1 through day 3. 2 hours after the injection on day 3, LPS diluted in saline solution (1 μg/mL) was injected intra-abdominally at a concentration of about 4 mg per kg body weight of mouse to induce inflammation by inflammatory factors (PGE2, TNF-α and IL1-β). After approximately 12 hours, the abdomen of the mouse was cut open, and blood was taken from the artery of the heart and stored at […]. The blood was kept at room temperature for 30 minutes and, after centrifuge at 4° C. and 3,000 rpm for 10 minutes, the supernatant was kept at −20° C. Then, the inflammatory factors PGE2, TNF-α and IL1-β were identified by western blotting. Measurement was made twice and the mean value was calculated. The result is shown in Table 4 and FIG. 9 (PGE2 (ng/mL)), Table 5 and FIG. 10 (TNF-α (ng/mL)), and Table 6 and FIG. 11 (IL1-β (pg/mL)).

PGE2 = experiment: LPS-induced inflammatory factor PGE2 in mouse blood; type: in vivo; settings: mouse blood about 12 h after LPS, intra-abdominal
Procedure: as §1, §2

type I procollagen = experiment: Type I procollagen assay in human fibroblasts (ELISA); type: cell-based; settings: 3rd day, sample 10 μg/mL
Procedure: Human fibroblasts were cultured on a 12-well plate incubator to a concentration of 10^5 cells/well. Then, the medium was replaced by one including the ginseng berry extract of Example 1 (1 μg/mL and 10 μg/mL), the ginseng berry saponin concentrate of Example 2 (10 μg/mL), the ginseng root extract of Comparative Example 1 (10 μg/mL) or ginsenosides Rg1, Rg2, Rh1 or Re (10 μg/mL). 10 ng/mL transforming growth factor β (TGF-β) was used as a positive control substance.
On the 3rd day of culturing, the cells were harvested and the quantity of produced type I procollagen was analyzed using ELISA. The result was calculated as a relative value with respect to the negative control group, which was not treated with a test substance.

Human epidermal cells = experiment: Hyaluronic acid production in human epidermal cells; type: cell-based; settings: 48 hours, relative to control; sample 10 μg/mL
Procedure: Human epidermal cells were cultured and the medium was replaced by one containing the ginseng berry extract of Example 1 (1 μg/mL, 10 μg/mL and 100 μg/mL), the ginseng berry saponin concentrate of Example 2 (10 μg/mL), the ginseng root extract of Comparative Example 1 (10 μg/mL) or ginsenosides Rg1, Rg2, Rh1 or Re (10 μg/mL) or a general medium (control). The cells were then cultured for 48 hours under the same conditions. Then, the quantity of hyaluronic acid in the groups was compared using a hyaluronic acid measurement kit. The result is given as relative value with respect to the control group in Table 16 and FIG. 20.

| SMILES | Melanin generation inhibition ratio (%) [1] [%] | COX-2 biosynthesis (%) (Cyclooxygenase-2 (COX-2)) | IL1-β, Mean ± standard deviation (IL1-β; group (10 μg/mL)) [pg/mL] | IL1-β, Result 1 (IL1-β; group (10 μg/mL)) [pg/mL] | IL1-β, Result 2 (IL1-β; group (10 μg/mL)) [pg/mL] | IL1-β, Mean ± standard deviation (IL1-β; group (20 μg/mL)) [pg/mL] | IL1-β, Result 1 (IL1-β; group (20 μg/mL)) [pg/mL] | IL1-β, Result 2 (IL1-β; group (20 μg/mL)) [pg/mL] | PGE2, Mean ± standard deviation (PGE2; group (10 μg/mL)) [ng/mL] | PGE2, Result 1 (PGE2; group (10 μg/mL)) [ng/mL] | PGE2, Result 2 (PGE2; group (10 μg/mL)) [ng/mL] | PGE2, Mean ± standard deviation (PGE2; group (20 μg/mL)) [ng/mL] | PGE2, Result 1 (PGE2; group (20 μg/mL)) [ng/mL] | PGE2, Result 2 (PGE2; group (20 μg/mL)) [ng/mL] | Procollagen activity relative to negative control (%) (type I procollagen) | Hyaluronic acid production (%) (Human epidermal cells) |
| --- | --- | --- | --- | --- | --- | --- | --- | --- | --- | --- | --- | --- | --- | --- | --- | --- |
| CC(C)=CCC[C@](C)(O[C@@H]1O[C@H](CO)[C@@H](O)[C@H](O)[C@H]1O)[C@H]1CC[C@]2(C)[C@@H]1[C@H](O)C[C@@H]1[C@@]3(C)CC[C@H](O)C(C)(C)[C@@H]3[C@@H](O[C@@H]3O[C@H](CO)[C@@H](O)[C@H](O)[C@H]3O)C[C@]12C [Rg1] | 1 | 95 | 133.50 ± 7.78 | 128 | 139 | 141.50 ± 9.19 | 135 | 148 | 6.32 ± 0.04 | 6.29 | 6.35 | 6.26 ± 0.07 | 6.31 | 6.21 | 105 | 100 |
| CC(C)=CCC[C@](C)(O)[C@H]1CC[C@]2(C)[C@@H]1[C@H](O)C[C@@H]1[C@@]3(C)CC[C@H](O)C(C)(C)[C@@H]3[C@@H](O[C@@H]3O[C@H](CO)[C@@H](O)[C@H](O)[C@H]3O[C@@H]3O[C@@H](C)[C@H](O)[C@@H](O)[C@H]3O)C[C@]12C [Rg2] | 0 | 97 | 131.50 ± 3.54 | 129 | 134 | 125.00 ± 8.49 | 131 | 119 | 6.15 ± 0.21 | 6 | 6.3 | 6.09 ± 0.09 | 6.15 | 6.02 | 110 | 105 |
| CC(C)=CCC[C@](C)(O)[C@H]1CC[C@]2(C)[C@@H]1[C@H](O)C[C@@H]1[C@@]3(C)CC[C@H](O)C(C)(C)[C@@H]3[C@@H](O[C@@H]3O[C@H](CO)[C@@H](O)[C@H](O)[C@H]3O)C[C@]12C [Rh1] | 2 | 99 | 121.50 ± 7.78 | 116 | 127 | 112.75 ± 6.72 | 108 | 117.5 | 6.13 ± 0.04 | 6.15 | 6.1 | 5.46 ± 0.20 | 5.6 | 5.32 | 105 | 100 |

From patent publication US10086028B2, “Method for treating vascular inflammation, improving skin beauty and improving male sexual function using ginseng berry” (AMOREPACIFIC CORPORATION, priority 2007, dated 2018)
